Where “and” joins values, the source holds several entries; their conditions need not be identical. Equal entries are not always repeated. ± gives the uncertainty stated by the source.
Test: xn = mol fraction of the nth substance listed

CCCC[N+](CCCC)(CCCC)Cc1ccccc1.[Cl-] + O=C(O)[C@@H]1CCCN1 + O
electrical conductivity [S/m], 101 kPa
Details	298.15 K	303.15 K	308.15 K
x2 = 1.802e-05, x1 = 1.802e-05	0.0132 ± 0.0013	0.0149 ± 0.0015	0.0164 ± 0.0016
x2 = 1.804e-05, x1 = 5.406e-05	0.0279 ± 0.0028	0.0297 ± 0.003	0.0314 ± 0.0031
x2 = 1.805e-05, x1 = 9.009e-05	0.0321 ± 0.0032	0.0338 ± 0.0034	0.0353 ± 0.0035
x2 = 4.506e-05, x1 = 1.802e-05	0.0156 ± 0.0016	0.0164 ± 0.0016	0.0176 ± 0.0018
x2 = 4.509e-05, x1 = 5.405e-05	0.0298 ± 0.003	0.0313 ± 0.0031	0.0329 ± 0.0033
x2 = 4.511e-05, x1 = 9.009e-05	0.0339 ± 0.0034	0.0356 ± 0.0036	0.0372 ± 0.0037
x2 = 7.21e-05, x1 = 1.802e-05	0.0169 ± 0.0017	0.0183 ± 0.0018	0.0197 ± 0.002
x2 = 7.214e-05, x1 = 5.405e-05	0.0314 ± 0.0031	0.0327 ± 0.0033	0.0341 ± 0.0034
x2 = 7.218e-05, x1 = 9.009e-05	0.0353 ± 0.0035	0.0367 ± 0.0037	0.0387 ± 0.0039
x2 = 9.913e-05, x1 = 1.802e-05	0.0184 ± 0.0018	0.0206 ± 0.0021	0.0213 ± 0.0021
x2 = 9.919e-05, x1 = 5.405e-05	0.0329 ± 0.0033	0.0335 ± 0.0034	0.0354 ± 0.0035
x2 = 9.925e-05, x1 = 9.008e-05	0.0368 ± 0.0037	0.0383 ± 0.0038	0.0409 ± 0.0041
x2 = 0.0001262, x1 = 1.802e-05	0.0209 ± 0.0021	0.0219 ± 0.0022	0.0229 ± 0.0023
x2 = 0.0001262, x1 = 5.405e-05	0.0337 ± 0.0034	0.0349 ± 0.0035	0.0366 ± 0.0037
x2 = 0.0001263, x1 = 9.008e-05	0.0384 ± 0.0038	0.0398 ± 0.004	0.0423 ± 0.0042
x2 = 0.0001532, x1 = 1.802e-05	0.0223 ± 0.0022	0.0239 ± 0.0024	0.0251 ± 0.0025
x2 = 0.0001533, x1 = 5.405e-05	0.0345 ± 0.0035	0.0358 ± 0.0036	0.0381 ± 0.0038
x2 = 0.0001534, x1 = 9.008e-05	0.0395 ± 0.004	0.0416 ± 0.0042	0.0445 ± 0.0045

CCCC[N+](CCCC)(CCCC)Cc1ccccc1.[Cl-] + O=C([O-])C1=NN(c2ccc(S(=O)(=O)[O-])cc2)C(=O)C1N=Nc1ccc(S(=O)(=O)[O-])cc1.[Na+].[Na+].[Na+] + O
electrical conductivity [S/m], 101.3 kPa, frequency 0.001 MHz
Details	298.15 K	308.15 K	318.15 K
x2 = 0, x1 = 1.802e-05	0.0104 ± 0.0043	0.0139 ± 0.0051	0.0173 ± 0.0061
x2 = 0, x1 = 5.406e-05	0.0231 ± 0.0047	0.0284 ± 0.0056	0.0345 ± 0.0071
x2 = 0, x1 = 9.009e-05	0.0367 ± 0.006	0.0457 ± 0.0069	0.0546 ± 0.0081

viscosity [mPa·s], 101.3 kPa
Details	298.15 K	308.15 K	318.15 K
x2 = 0, x1 = 1.802e-05	0.906 ± 0.045	0.775 ± 0.045	0.643 ± 0.045
x2 = 0, x1 = 5.406e-05	0.923 ± 0.045	0.793 ± 0.045	0.659 ± 0.045
x2 = 0, x1 = 9.009e-05	0.942 ± 0.045	–	–

CC(C)C[P+](C)(CC(C)C)CC(C)C.Cc1ccc(S(=O)(=O)[O-])cc1 + O=S1(=O)CCCC1
101.33 kPa, x1 = 0.5
Details	viscosity [mPa·s]
303.18 K	216 ± 52
313.18 K	122 ± 26
323.15 K	69 ± 14
333.13 K	44.4 ± 9
343.09 K	27.4 ± 5.5
353.11 K	18.5 ± 3.7

CCCCCC[N+]1(C)CCCC1.O=S(=O)([N-]S(=O)(=O)C(F)(F)F)C(F)(F)F + O=S1(=O)CCCC1
101.33 kPa, x1 = 0.5
Details	viscosity [mPa·s]
303.25 K	30.7 ± 6.2
313.25 K	22.1 ± 4.5
323.25 K	16.4 ± 3.3
333.15 K	12.2 ± 2.5
343.15 K	9 ± 1.8
353.15 K	7.2 ± 1.4

CCC(=O)OC + O=S(=O)([N-]S(=O)(=O)C(F)(F)F)C(F)(F)F.[Li+]
298.1 K, 100 kPa, x2 = 0.333
Details	electrical conductivity [S/m]	viscosity [mPa·s]
–	0.23 ± 0.01	21.6 ± 0.5

O=S(=O)([N-]S(=O)(=O)C(F)(F)F)C(F)(F)F.[Rb+] + O=S(=O)([N-]S(=O)(=O)C(F)(F)F)C(F)(F)F.[Li+]
100 kPa, x2 = 0.25
Details	viscosity [mPa·s]
452.5 K	47.7 ± 5
463 K	36.9 ± 3.8
483.1 K	22.7 ± 2.3
523.6 K	10.2 ± 1
531.9 K	8.55 ± 0.87

100 kPa, frequency 1 MHz, x2 = 0.25
Details	electrical conductivity [S/m]
512.5 K	2.82 ± 0.28
531.5 K	3.59 ± 0.36

CCC(=O)OC + O=S(=O)([N-]S(=O)(=O)C(F)(F)F)C(F)(F)F.[Li+] + COC(=O)OC
298.15 K, 100 kPa
Details	viscosity [mPa·s]
x2 = 0.333, x3 = 0	21.6 ± 0.5
x2 = 0.333, x3 = 0.3335	38.6 ± 1.1

O=S(=O)([N-]S(=O)(=O)C(F)(F)C(F)(F)F)C(F)(F)F.[Li+] + O=S(=O)([O-])C(F)(F)F.[Li+] + O
101 kPa
Details	electrical conductivity, x1 = 0.1527, x2 = 0.1527 [S/m]	electrical conductivity, x1 = 0.2128, x2 = 0.08265	electrical conductivity, x1 = 0.2128, x2 = 0.1527 [S/m]	electrical conductivity, x1 = 0.2551, x2 = 0.08265	electrical conductivity, x1 = 0.2649, x2 = 0 [S/m]	electrical conductivity, x1 = 0.3106, x2 = 0.1527 [S/m]	viscosity, x1 = 0.2128, x2 = 0.08265 [mPa·s]	viscosity, x1 = 0.2551, x2 = 0.08265 [mPa·s]	viscosity, x1 = 0.2649, x2 = 0 [mPa·s]
283 K	–	0.39 ± 0.008 S/m	–	0.195 ± 0.004 S/m	0.36 ± 0.007	–	186 ± 5	406 ± 14	255 ± 8
293 K	–	0.57 ± 0.011 S/m	–	0.298 ± 0.006 S/m	0.531 ± 0.011	–	110 ± 3	228 ± 7	145 ± 4
298.1 K	0.83 ± 0.02	0.675 S/m and 0.68 S/m	0.41 ± 0.01	0.362 S/m and 0.37 S/m	0.646 ± 0.013	0.16 ± 0.01	87 ± 2.3	177 ± 5	114 ± 3
303 K	–	0.788 ± 0.016 S/m	–	0.433 ± 0.009 S/m	0.762 ± 0.015	–	70.9 ± 1.8	141 ± 4	89.8 ± 2.5
313 K	–	1.05 ± 0.02 S/m	–	0.599 ± 0.012 S/m	1.02 ± 0.02	–	48.4 ± 1.3	90.1 ± 2.2	58.8 ± 1.7
323 K	–	1.36 ± 0.03 S/m	–	0.791 ± 0.016 S/m	1.33 ± 0.03	–	33.9 ± 1	61.6 ± 1.5	40.2 ± 1.3
333 K	–	1.7 ± 0.03 S/m	–	1.02 ± 0.02 S/m	1.67 ± 0.03	–	24.8 ± 0.9	43.2 ± 1.1	29.1 ± 1.2

C[N+](C)(CCO)CCOCCO.[Cl-] + OCCO
101 kPa, x1 = 0.3333
Details	viscosity [mPa·s]
283.15 K	242.4 ± 6.9
288.15 K	177.4 ± 4.6
293.15 K	131.9 ± 3.2
298.15 K	100.9 ± 2.3
303.15 K	78.8 ± 1.7
308.15 K	62.2 ± 1.3
313.15 K	49.8 ± 1
318.15 K	40.49 ± 0.85
323.15 K	33.3 ± 0.7
328.15 K	27.72 ± 0.58
333.15 K	23.38 ± 0.49
338.15 K	19.82 ± 0.41
343.15 K	17 ± 0.36
348.15 K	14.73 ± 0.31
353.15 K	12.94 ± 0.27

— the CheMixHub ionic liquid set
